Source: patent US6914045B2, “Glycopeptide antibiotics” (Wyeth Holdings Corporation, priority 2001, dated 2005)
Converted amounts (≈) assume the structure as drawn. Like-named read-outs stand apart in the source and are kept apart here.

Assays:
[1] = system: Staphylococcus aureus-SMITH (GC 4543); test: acute lethal infection in mice; format: in vivo; settings: Staphylococcus, read-out: median effective dose (ED50), Staphylococcus aureus-SMITH (GC 4543)
Summary of the method: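 ED50 from 7 day survival ratios pooled over 3 separate tests. Female CD-1 mice, 20+/−2 gm, ip bacterial challenge (trypticase soy broth or hog gastric mucin) lethal to untreated controls in 24-48 hr; iv dosing 30 min after infection in saline or 5% dextrose, n=5/dose.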

[2] = anatomic pathology (histopathology of heart and kidney) in mice; format: in vivo; settings: CD-1 mice, 20 mg/kg intravenously daily for 9 days, necropsy day 10, microscopic histopathology
Experimental: Samples of tissues from necropsied mice were formalin-fixed, paraffin-embedded, sectioned, stained with hematoxylin and eosin, and examined microscopically. Histopathologic findings were recorded. These findings were subjectively graded on a scale corresponding to slight, mild, moderate, marked and severe as compared to untreated controls.

Streptococcus sp. = test: in vitro antibacterial evaluation, MIC by broth dilution; format: cell-based; settings: broth dilution, 18 hours at 35° C.
Summary of the method: (§1)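 Inoculum 5×10^5 CFU/mL; concentrations 64 to 0.06 μg/mL; MIC defined as lowest inhibitory level. Conducted by broth dilution under NCCLS guidelines.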

Escherichia coli = test: as above; format: cell-based; settings: 18 hours at 35° C.
Summary of the method: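 Test organisms, which included recent clinical isolates resistant to methicillin, penicillin and/or vancomycin, were inoculated at 5×10^5 CFU/mL into Muller-Hinton II […] containing antibiotic at 64-0.06 μg/mL. Minimum inhibitory concentrations were then read as the lowest level inhibiting growth.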

Staphylococcus sp. = test: as above; format: cell-based; settings: broth dilution, 18 hours at 35° C.
Summary of the method: as §1

Enterococcus sp. = test: as above; format: cell-based; settings: broth dilution, 18 hours at 35° C.
Summary of the method: as §1

[3] = system: Gram-positive bacteria comprised of Staphylococcus sp., Streptococcus sp. and Enterococcus sp.; test: in vitro antibacterial evaluation, MIC by broth dilution (strain not given); format: cell-based
Experimental: Methods for in vitro Antibacterial Evaluation (Table 1)
The minimum inhibitory concentration (MIC), the lowest concentration of the antibiotic which inhibits growth of the test organism, is determined by the broth dilution method using Muller-Hinton II […] (Baltimore Biological Laboratories) following the recommendations of the National Committee for Clinical Laboratory Standards [Methods for dilution antimicrobial susceptibility tests for bacteria that grow aerobically, approved standard M7-A2, National Committee for Clinical Laboratory Standards, Villanova, Pa.].
An inoculum level of 5×10^5 CFU/mL, and a range of antibiotic concentrations (64-0.06 μg/mL) is used. […] The test organisms include a spectrum of Gram-positive bacteria comprised of Staphylococcus sp., Streptococcus sp. and Enterococcus sp. These organisms include recent clinical isolates that are resistant to methicillin, penicillin and/or vancomycin.

Question: For `N=C1NCC(C(O)C2NC(=O)[C@H](C(O)C3CNC(=N)N3)NC(=O)C(Cc3ccc(O)cc3)NC(=O)[C@H](Cc3ccccc3)NC(=O)CNC(=O)[C@H](CO)NC2=O)N1` (stereo in doubt) [Example 280a, Cyclo[glycylphenylalanyltyrosyl-3-(2-iminoimidazolidin-4-yl)seryl-3-(2-iminoimidazolidin-4-yl)serylseryl]], which ED50 [1] is on record?
Answer: > 8 mg/kg

Question: What about the “Anatomical Pathology (Day 10), Heart” value [2] of the same molecule?
Answer: 0

Question: What about the “Anatomical Pathology (Day 10), Kidney” value [2] of the same molecule?
Answer: ++

Question: What about the MIC (Streptococcus sp.; strain ATCC 6301, read-out: MIC Streptococcus pneumoniae (ATCC 6301)) of the same molecule?
Answer: > 128 µg/mL

Question: What about the MIC (Streptococcus sp.; strain GC 1894, read-out: MIC Streptococcus pneumoniae (GC 1894)) of the same molecule?
Answer: 128 µg/mL (≈ 161 µM)

Question: And the MIC (Streptococcus sp.; strain GC 4563, read-out: MIC Streptococcus pyogenes (GC 4563))?
Answer: > 128 µg/mL

Question: What about the MIC (Streptococcus sp.; strain GC 4564, read-out: MIC Streptococcus agalactiae (GC 4564)) of the same molecule?
Answer: > 128 µg/mL

Question: What about the MIC (Streptococcus sp.; strain GC 4565, read-out: MIC Streptococcus pneumoniae (GC 4565)) of the same molecule?
Answer: > 128 µg/mL

Question: What about the MIC (Escherichia coli; ATCC25922, Escherichia coli (ATCC 25922), read-out: MIC, Escherichia coli (ATCC 25922)) of the same molecule?
Answer: 128 µg/mL (≈ 161 µM)

Question: And the MIC (Escherichia coli; Escherichia coli (GC 4559), read-out: MIC, Escherichia coli (GC 4559))?
Answer: 64 µg/mL (≈ 80.5 µM)

Question: What about the MIC (Escherichia coli; Escherichia coli (GC 4560), read-out: MIC, Escherichia coli (GC 4560)) of the same molecule?
Answer: 64 µg/mL (≈ 80.5 µM)

Question: And the MIC (Staphylococcus sp.; Staphylococcus, read-out: MIC Coagulase Negative Staphylococcus (GC 4547))?
Answer: 128 µg/mL (≈ 161 µM)

Question: What about the MIC (Staphylococcus sp.; Staphylococcus, read-out: MIC Coagulase Negative Staphylococcus (GC 4548)) of the same molecule?
Answer: > 128 µg/mL

Question: What about the MIC (Staphylococcus sp.; Staphylococcus, read-out: MIC Coagulase Negative Staphylococcus (GC 4549)) of the same molecule?
Answer: 128 µg/mL (≈ 161 µM)

Question: And the MIC (Staphylococcus sp.; Staphylococcus, read-out: MIC Coagulase Negative Staphylococcus (GC 4551))?
Answer: > 128 µg/mL

Question: And the MIC (Staphylococcus sp.; Staphylococcus, read-out: MIC Coagulase Negative Staphylococcus (GC 6257))?
Answer: 128 µg/mL (≈ 161 µM)

Question: And the MIC (Staphylococcus sp.; Staphylococcus, read-out: MIC Staphylococcus aureus-SMITH (GC 4543))?
Answer: > 128 µg/mL

Question: And the MIC (Staphylococcus sp.; read-out: MIC Staphylococcus aureus (ATCC 29213))?
Answer: > 128 µg/mL

Question: And the MIC (Staphylococcus sp.; read-out: MIC Staphylococcus aureus (GC 1131))?
Answer: > 128 µg/mL

Question: And the MIC (Staphylococcus sp.; read-out: MIC Staphylococcus aureus (GC 3051))?
Answer: > 128 µg/mL

Question: And the MIC (Staphylococcus sp.; read-out: MIC Staphylococcus aureus (GC 3053))?
Answer: > 128 µg/mL

Question: What about the MIC (Staphylococcus sp.; read-out: MIC Staphylococcus aureus (GC 4541)) of the same molecule?
Answer: > 128 µg/mL

Question: What about the MIC (Staphylococcus sp.; read-out: MIC Staphylococcus aureus (GC 4542)) of the same molecule?
Answer: > 128 µg/mL

Question: And the MIC (Staphylococcus sp.; read-out: MIC Staphylococcus aureus (GC 4544))?
Answer: > 128 µg/mL

Question: What about the MIC (Staphylococcus sp.; read-out: MIC Staphylococcus aureus (GC 4545)) of the same molecule?
Answer: > 128 µg/mL

Question: And the MIC (Staphylococcus sp.; read-out: MIC Staphylococcus haemolyticus (GC 4546))?
Answer: 128 µg/mL (≈ 161 µM)

Question: What about the “MIC Staphylococcus aureus (ATCC 29213)” value (Staphylococcus sp.; strain ATCC 29213) of the same molecule?
Answer: >128 µg/mL

Question: And the “MIC Staphylococcus aureus (GC 1131)” value (Staphylococcus sp.; strain GC 1131)?
Answer: >128 µg/mL

Question: What about the “MIC Staphylococcus aureus (GC 3051)” value (Staphylococcus sp.; strain GC 3051) of the same molecule?
Answer: >128 µg/mL

Question: And the “MIC Staphylococcus aureus (GC 3053)” value (Staphylococcus sp.; strain GC 3053)?
Answer: >128 µg/mL

Question: What about the “MIC Staphylococcus aureus (GC 4541)” value (Staphylococcus sp.; strain GC 4541) of the same molecule?
Answer: >128 µg/mL

Question: What about the “MIC Staphylococcus aureus (GC 4542)” value (Staphylococcus sp.; strain GC 4542) of the same molecule?
Answer: >128 µg/mL

Question: What about the “MIC Staphylococcus aureus (GC 4544)” value (Staphylococcus sp.; strain GC 4544) of the same molecule?
Answer: >128 µg/mL

Question: What about the “MIC Staphylococcus aureus (GC 4545)” value (Staphylococcus sp.; strain GC 4545) of the same molecule?
Answer: >128 µg/mL

Question: And the “MIC Staphylococcus haemolyticus (GC 4546)” value (Staphylococcus sp.; strain GC 4546)?
Answer: 128 µg/mL (≈ 161 µM)

Question: And the “MIC Coagulase Negative Staphylococcus (GC 4547)” value (Staphylococcus sp.; strain GC 4547)?
Answer: 128 µg/mL (≈ 161 µM)

Question: What about the “MIC Coagulase Negative Staphylococcus (GC 4548)” value (Staphylococcus sp.; strain GC 4548) of the same molecule?
Answer: >128 µg/mL

Question: What about the “MIC Coagulase Negative Staphylococcus (GC 4549)” value (Staphylococcus sp.; strain GC 4549) of the same molecule?
Answer: 128 µg/mL (≈ 161 µM)

Question: What about the “MIC Coagulase Negative Staphylococcus (GC 4551)” value (Staphylococcus sp.; strain GC 4551) of the same molecule?
Answer: >128 µg/mL

Question: And the “MIC Coagulase Negative Staphylococcus (GC 6257)” value (Staphylococcus sp.; strain GC 6257)?
Answer: 128 µg/mL (≈ 161 µM)

Question: What about the “MIC Staphylococcus aureus-SMITH (GC 4543)” value (Staphylococcus sp.; strain SMITH GC 4543) of the same molecule?
Answer: >128 µg/mL

Question: What about the MIC (Enterococcus sp.; Enterococcus avium (GC 4558), read-out: MIC, Enterococcus avium (GC 4558)) of the same molecule?
Answer: > 128 µg/mL

Question: And the MIC (Enterococcus sp.; Enterococcus faecalis (ATCC 29212), read-out: MIC, Enterococcus faecalis (ATCC 29212))?
Answer: > 128 µg/mL

Question: And the MIC (Enterococcus sp.; Enterococcus faecalis (GC 4553), read-out: MIC, Enterococcus faecalis (GC 4553))?
Answer: > 128 µg/mL

Question: What about the MIC (Enterococcus sp.; Enterococcus faecalis (GC 4554), read-out: MIC, Enterococcus faecalis (GC 4554)) of the same molecule?
Answer: > 128 µg/mL

Question: What about the MIC (Enterococcus sp.; Enterococcus faecalis (GC 6189), read-out: MIC, Enterococcus faecalis (GC 6189)) of the same molecule?
Answer: > 128 µg/mL

Question: What about the MIC (Enterococcus sp.; Enterococcus faecium (GC 2243), read-out: MIC, Enterococcus faecium (GC 2243)) of the same molecule?
Answer: > 128 µg/mL

Question: What about the MIC (Enterococcus sp.; Enterococcus faecium (GC 4556), read-out: MIC, Enterococcus faecium (GC 4556)) of the same molecule?
Answer: > 128 µg/mL

Question: What about the MIC (Enterococcus sp.; Enterococcus faecium (GC 4557), read-out: MIC, Enterococcus faecium (GC 4557)) of the same molecule?
Answer: > 128 µg/mL

Question: And the MIC (Enterococcus sp.; strain ATCC 29212, read-out: MIC Enterococcus faecalis (ATCC 29212))?
Answer: > 128 µg/mL

Question: And the MIC (Enterococcus sp.; strain GC 2242, read-out: MIC Enterococcus faecalis (GC 2242))?
Answer: > 128 µg/mL

Question: And the MIC (Enterococcus sp.; strain GC 2243, read-out: MIC Enterococcus faecium (GC 2243))?
Answer: > 128 µg/mL

Question: And the MIC (Enterococcus sp.; strain GC 2691, read-out: MIC Enterococcus faecalis (GC 2691))?
Answer: > 128 µg/mL

Question: And the MIC (Enterococcus sp.; strain GC 3059, read-out: MIC Enterococcus faecalis (GC 3059))?
Answer: > 128 µg/mL

Question: What about the MIC (Enterococcus sp.; strain GC 4552, read-out: MIC Enterococcus faecalis (GC 4552)) of the same molecule?
Answer: > 128 µg/mL

Question: And the MIC (Enterococcus sp.; strain GC 4553, read-out: MIC Enterococcus faecalis (GC 4553))?
Answer: > 128 µg/mL

Question: And the MIC (Enterococcus sp.; strain GC 4554, read-out: MIC Enterococcus faecalis (GC 4554))?
Answer: > 128 µg/mL

Question: What about the MIC (Enterococcus sp.; strain GC 4556, read-out: MIC Enterococcus faecium (GC 4556)) of the same molecule?
Answer: > 128 µg/mL

Question: What about the MIC (Enterococcus sp.; strain GC 4557, read-out: MIC Enterococcus faecium (GC 4557)) of the same molecule?
Answer: > 128 µg/mL

Question: What about the MIC (Enterococcus sp.; strain GC 4558, read-out: MIC Enterococcus avium (GC 4558)) of the same molecule?
Answer: > 128 µg/mL

Question: What about the MIC (Enterococcus sp.; strain GC 6189, read-out: MIC Enterococcus faecalis (GC 6189)) of the same molecule?
Answer: > 128 µg/mL

Question: What about the MIC ([3]; Table 2 section r2574-r2600, column 1, 18 hours at 35° C., read-out: MIC, strain of column 1) of the same molecule?
Answer: > 128 µg/mL

Question: And the MIC ([3]; Table 2 section r2574-r2600, column 2, 18 hours at 35° C., read-out: MIC, strain of column 2)?
Answer: 128 µg/mL (≈ 161 µM)

Question: What about the MIC ([3]; Table 2 section r2574-r2600, column 3, 18 hours at 35° C., read-out: MIC, strain not given) of the same molecule?
Answer: > 128 µg/mL

Question: What about the MIC ([3]; Table 2 section r2574-r2600, column 5, 18 hours at 35° C., read-out: MIC, strain of column 5) of the same molecule?
Answer: > 128 µg/mL

Question: What about the MIC ([3]; Table 2 section r2574-r2600, column 7, 18 hours at 35° C., read-out: MIC, strain not given) of the same molecule?
Answer: > 128 µg/mL

Question: What about the MIC ([3]; Table 2 section r2574-r2600, column 9, 18 hours at 35° C., read-out: MIC, strain of column 9) of the same molecule?
Answer: > 128 µg/mL

Question: And the MIC ([3]; Table 2 section r2574-r2600, column 10, 18 hours at 35° C., read-out: MIC, strain of column 10)?
Answer: > 128 µg/mL
